{"source": "patent EP1517674B1", "about": "“PREPARATIONS FOR THE INTRANASAL APPLICATION OF SELECTED CGRP A[…] FROM AMINO ACIDS AND A METHOD FOR THEIR PRODUCTION” (Boehringer Ingelheim Pharma GmbH & Co. KG, priority 2002, dated 2003)", "experiment": "Stability test of higher-concentration nasal spray solutions (hydrochloride in aqueous solution, packed in aluminium pouch)", "type": "physicochemical", "details": "for Gehalt an Wirkstoff (A): as free base", "description": "Stabilitätsprüfung höher konzentrierter erfindungsgemäßer Nasalspray-Lösungen:\nDie nachfolgende Tabelle zeigt, dass die oxidative Zersetzung des nachstehend aufgeführten Wirkstoffs\nDie zum Teil (insbesondere bei 40°C) hohe Gesamtzersetzung beruht auf Hydrolyse.\nDer in der Tabelle 1 angegebene Gehalt an Wirkstoff (A) bezieht sich jeweils auf die ursprünglich eingewogene freie Base.", "key": {"[1]": {"details": "Wirkstoff-Konzentration 15 %, 3-Monats-Wert, 25°C, 129600 min"}, "[2]": {"details": "Wirkstoff-Konzentration 15 %, 3-Monats-Wert, 40°C, 129600 min"}, "[3]": {"details": "Wirkstoff-Konzentration 15 %, 6-Monats-Wert, 25°C, 259200 min"}, "[4]": {"details": "Wirkstoff-Konzentration 15 %, 6-Monats-Wert, 40°C, 259200 min"}, "[5]": {"details": "Wirkstoff-Konzentration 15 %, 6-Wochen-Wert, 25°C, 60480 min"}, "[6]": {"details": "Wirkstoff-Konzentration 15 %, 6-Wochen-Wert, 40°C, 60480 min"}, "[7]": {"details": "Wirkstoff-Konzentration 15 %, Anfangswert"}, "[8]": {"details": "Wirkstoff-Konzentration 20 %, 3-Monats-Wert, 25°C, 129600 min"}, "[9]": {"details": "Wirkstoff-Konzentration 20 %, 3-Monats-Wert, 40°C, 129600 min"}, "[10]": {"details": "Wirkstoff-Konzentration 20 %, 6-Monats-Wert, 25°C, 259200 min"}, "[11]": {"details": "Wirkstoff-Konzentration 20 %, 6-Monats-Wert, 40°C, 259200 min"}, "[12]": {"details": "Wirkstoff-Konzentration 20 %, 6-Wochen-Wert, 25°C, 60480 min"}, "[13]": {"details": "Wirkstoff-Konzentration 20 %, 6-Wochen-Wert, 40°C, 60480 min"}, "[14]": {"details": "Wirkstoff-Konzentration 20 %, Anfangswert"}, "[15]": {"details": "Wirkstoff-Konzentration 30 %, 3-Monats-Wert, 25°C, 129600 min"}, "[16]": {"details": "Wirkstoff-Konzentration 30 %, 3-Monats-Wert, 40°C, 129600 min"}, "[17]": {"details": "Wirkstoff-Konzentration 30 %, 6-Monats-Wert, 25°C, 259200 min"}, "[18]": {"details": "Wirkstoff-Konzentration 30 %, 6-Monats-Wert, 40°C, 259200 min"}, "[19]": {"details": "Wirkstoff-Konzentration 30 %, 6-Wochen-Wert, 25°C, 60480 min"}, "[20]": {"details": "Wirkstoff-Konzentration 30 %, 6-Wochen-Wert, 40°C, 60480 min"}, "[21]": {"details": "Wirkstoff-Konzentration 30 %, Anfangswert"}}, "data": [{"smiles": "NCCCC[C@H](NC(=O)[C@@H](Cc1cc(Br)c(O)c(Br)c1)NC(=O)N1CCC(N2Cc3ccccc3NC2=O)CC1)C(=O)N1CCN(c2ccncc2)CC1", "note": "[(A), 1-[N^2-[3,5-Dibrom-N-[[4-(3,4-dihydro-2(1 H)-oxochinazolin-3-yl)-1-piperidinyl]-carbonyl]-D-tyrosyl]-L-lysyl]-4-(4-pyridinyl)-piperazin]", "values": [{"measurement": "Gesamt-Zersetzung", "setting": "[1]", "value": "1,69%"}, {"measurement": "Zersetzung durch Oxidation", "setting": "[1]", "value": "0,64%"}, {"measurement": "Gehalt an Wirkstoff (A)", "setting": "Wirkstoff-Konzentration 15 %, 3-Monats-Wert, 25°C", "value": "147,7mg/ml"}, {"measurement": "Gesamt-Zersetzung", "setting": "[2]", "value": "8,22%"}, {"measurement": "Zersetzung durch Oxidation", "setting": "[2]", "value": "0,55%"}, {"measurement": "Gehalt an Wirkstoff (A)", "setting": "Wirkstoff-Konzentration 15 %, 3-Monats-Wert, 40°C", "value": "139,4mg/ml"}, {"measurement": "Gesamt-Zersetzung", "setting": "[3]", "value": "2,07%"}, {"measurement": "Zersetzung durch Oxidation", "setting": "[3]", "value": "0,82%"}, {"measurement": "Gehalt an Wirkstoff (A)", "setting": "Wirkstoff-Konzentration 15 %, 6-Monats-Wert, 25°C", "value": "147,7mg/ml"}, {"measurement": "Gesamt-Zersetzung", "setting": "[4]", "value": 15.33, "unit": "%"}, {"measurement": "Zersetzung durch Oxidation", "setting": "[4]", "value": "0,78%"}, {"measurement": "Gehalt an Wirkstoff (A)", "setting": "Wirkstoff-Konzentration 15 %, 6-Monats-Wert, 40°C", "value": "131,7mg/ml"}, {"measurement": "Gesamt-Zersetzung", "setting": "[5]", "value": "1,60%"}, {"measurement": "Zersetzung durch Oxidation", "setting": "[5]", "value": "0,72%"}, {"measurement": "Gehalt an Wirkstoff (A)", "setting": "Wirkstoff-Konzentration 15 %, 6-Wochen-Wert, 25°C", "value": "148,1mg/ml"}, {"measurement": "Gesamt-Zersetzung", "setting": "[6]", "value": "4,46%"}, {"measurement": "Zersetzung durch Oxidation", "setting": "[6]", "value": "0,52%"}, {"measurement": "Gehalt an Wirkstoff (A)", "setting": "Wirkstoff-Konzentration 15 %, 6-Wochen-Wert, 40°C", "value": "142,3mg/ml"}, {"measurement": "Gesamt-Zersetzung", "setting": "[7]", "value": "1,23%"}, {"measurement": "Zersetzung durch Oxidation", "setting": "[7]", "value": "0,59%"}, {"measurement": "Gehalt an Wirkstoff (A)", "setting": "[7]", "value": "148,6mg/ml"}, {"measurement": "Gesamt-Zersetzung", "setting": "[8]", "value": "1,50%"}, {"measurement": "Zersetzung durch Oxidation", "setting": "[8]", "value": "0,53%"}, {"measurement": "Gehalt an Wirkstoff (A)", "setting": "Wirkstoff-Konzentration 20 %, 3-Monats-Wert, 25°C", "value": "202,8mg/ml"}, {"measurement": "Gesamt-Zersetzung", "setting": "[9]", "value": "8,23%"}, {"measurement": "Zersetzung durch Oxidation", "setting": "[9]", "value": "0,47%"}, {"measurement": "Gehalt an Wirkstoff (A)", "setting": "Wirkstoff-Konzentration 20 %, 3-Monats-Wert, 40°C", "value": "191,4mg/ml"}, {"measurement": "Gesamt-Zersetzung", "setting": "[10]", "value": "1,99%"}, {"measurement": "Zersetzung durch Oxidation", "setting": "[10]", "value": "0,77%"}, {"measurement": "Gehalt an Wirkstoff (A)", "setting": "Wirkstoff-Konzentration 20 %, 6-Monats-Wert, 25°C", "value": "201,8m/ml"}, {"measurement": "Gesamt-Zersetzung", "setting": "[11]", "value": "14,61%"}, {"measurement": "Zersetzung durch Oxidation", "setting": "[11]", "value": "0,74%"}, {"measurement": "Gehalt an Wirkstoff (A)", "setting": "Wirkstoff-Konzentration 20 %, 6-Monats-Wert, 40°C", "value": "182,8mg/ml"}, {"measurement": "Gesamt-Zersetzung", "setting": "[12]", "value": "1,09%"}, {"measurement": "Zersetzung durch Oxidation", "setting": "[12]", "value": "0,54%"}, {"measurement": "Gehalt an Wirkstoff (A)", "setting": "Wirkstoff-Konzentration 20 %, 6-Wochen-Wert, 25°C", "value": "198,7mg/ml"}, {"measurement": "Gesamt-Zersetzung", "setting": "[13]", "value": "3,97%"}, {"measurement": "Zersetzung durch Oxidation", "setting": "[13]", "value": "0,55%"}, {"measurement": "Gehalt an Wirkstoff (A)", "setting": "Wirkstoff-Konzentration 20 %, 6-Wochen-Wert, 40°C", "value": "192,1mg/ml"}, {"measurement": "Gesamt-Zersetzung", "setting": "[14]", "value": "1,27%"}, {"measurement": "Zersetzung durch Oxidation", "setting": "[14]", "value": "0,56%"}, {"measurement": "Gehalt an Wirkstoff (A)", "setting": "[14]", "value": "197,9mg/ml"}, {"measurement": "Gesamt-Zersetzung", "setting": "[15]", "value": "1,48%"}, {"measurement": "Zersetzung durch Oxidation", "setting": "[15]", "value": "0,60%"}, {"measurement": "Gehalt an Wirkstoff (A)", "setting": "Wirkstoff-Konzentration 30 %, 3-Monats-Wert, 25°C", "value": 270, "unit": "mg/mL"}, {"measurement": "Gesamt-Zersetzung", "setting": "[16]", "value": 7.81, "unit": "%"}, {"measurement": "Zersetzung durch Oxidation", "setting": "[16]", "value": "0,59%"}, {"measurement": "Gehalt an Wirkstoff (A)", "setting": "Wirkstoff-Konzentration 30 %, 3-Monats-Wert, 40°C", "value": 260, "unit": "mg/mL"}, {"measurement": "Gesamt-Zersetzung", "setting": "[17]", "value": "2,04%"}, {"measurement": "Zersetzung durch Oxidation", "setting": "[17]", "value": "0,91%"}, {"measurement": "Gehalt an Wirkstoff (A)", "setting": "Wirkstoff-Konzentration 30 %, 6-Monats-Wert, 25°C", "value": 273, "unit": "mg/mL"}, {"measurement": "Gesamt-Zersetzung", "setting": "[18]", "value": "13,36%"}, {"measurement": "Zersetzung durch Oxidation", "setting": "[18]", "value": "0,84%"}, {"measurement": "Gehalt an Wirkstoff (A)", "setting": "Wirkstoff-Konzentration 30 %, 6-Monats-Wert, 40°C", "value": 246, "unit": "mg/mL"}, {"measurement": "Gesamt-Zersetzung", "setting": "[19]", "value": "1,19%"}, {"measurement": "Zersetzung durch Oxidation", "setting": "[19]", "value": "0,62%"}, {"measurement": "Gehalt an Wirkstoff (A)", "setting": "Wirkstoff-Konzentration 30 %, 6-Wochen-Wert, 25°C", "value": 264, "unit": "mg/mL"}, {"measurement": "Gesamt-Zersetzung", "setting": "[20]", "value": "3,95%"}, {"measurement": "Zersetzung durch Oxidation", "setting": "[20]", "value": "0,58%"}, {"measurement": "Gehalt an Wirkstoff (A)", "setting": "Wirkstoff-Konzentration 30 %, 6-Wochen-Wert, 40°C", "value": 260, "unit": "mg/mL"}, {"measurement": "Gesamt-Zersetzung", "setting": "[21]", "value": "1,20%"}, {"measurement": "Zersetzung durch Oxidation", "setting": "[21]", "value": "0,56%"}, {"measurement": "Gehalt an Wirkstoff (A)", "setting": "[21]", "value": 269, "unit": "mg/mL"}, {"measurement": "oxidative Zersetzung", "setting": "hydrochloride in aqueous solution, over a long period", "value": "praktisch unverändert"}]}]}
